The source of these data is ChEMBL document CHEMBL6103597, “Opto-Epigenetic Regulation of Histone Arginine Asymmetric Dimethylation via Type I Protein Arginine Methyltransferase Inhibition” (J Med Chem, 2025).

Data set [1] in a line: Photochemical property of compound assessed as hypsochromic shift by measuring maximum absorption peak wavelength at 10 uM upon visible light irradiation at 420 nm by UV-Vis absorption spectroscopy. Type of data set: physicochemical.
Data set [2] in a line: Photochemical property of compound assessed as maximum fluorescence emission wavelength at 10 uM upon visible light irradiation at 420 nm by UV-Vis absorption spectroscopy. Type of data set: physicochemical.
Data set [3] is described as follows: Prodrug photolysis assessed as drug degradation at 10 uM upon light irradiation at 420 nm for upto 4 mins by HPLC analysis. Type of data set: ADME.
Data set [4] is described as follows: Stability in PBS buffer at pH 7.4 at 37 degreeC assessed as compound remaining under dark condition measured for 72 hrs by HPLC analysis. Format: physicochemical. The conditions noted are these: read-out: Stability.
The test system of data set [5] is A549. Nature of the data set: Effect on transcriptomic profile in human A549 cells at 0.1 uM incubated for 24 hrs by RNA-sequencing analysis. Type of data set: functional, cell-based.
Data set [6] deals with A549. Nature of the data set: Effect on transcriptomic profile in human A549 cells at 0.1 uM incubated for 24 hrs followed by light irradiation at 420 nm for 4 mins by RNA-sequencing analysis. Type of data set: functional, cell-based. The conditions noted are these: time 1444.0 min.
Data set [7] deals with A549. Put plainly: Effect on transcriptomic profile in human A549 cells assessed as differentially expressed genes at 0.1 uM incubated for 24 hrs followed by light irradiation at 420 nm for 4 mins by RNA-sequencing analysis relative to control. Format: functional. The conditions noted are these: time 1444 min, 24.07 h.
Data set [8] deals with A549. Nature of the data set: Effect on cell cycle-related pathway in human A549 cells at 0.1 uM incubated for 24 hrs by GSEA analysis. Format: functional, cell-based.
Data set [9] deals with A549. Nature of the data set: Effect on DNA replication-related pathway in human A549 cells at 0.1 uM incubated for 24 hrs by GSEA analysis. Type of data set: functional, cell-based.
In data set [10] the test system is A549. Nature of the data set: Effect on cell cycle-related pathway in human A549 cells at 0.1 uM incubated for 24 hrs followed by light irradiation at 420 nm for 4 mins by GSEA analysis. The conditions noted are these: time 1444.0 min. Type of data set: functional, cell-based.
For data set [11], the system named is A549. Nature of the data set: Effect on DNA replication-related pathway in human A549 cells at 0.1 uM incubated for 24 hrs followed by light irradiation at 420 nm for 4 mins by GSEA analysis. Type of data set: functional, cell-based. The conditions noted are these: time 1444.0 min.
Data set [12] relates to A549. Put plainly: Antiproliferative activity against human A549 cells assessed as cell viability at 10 uM incubated for 24 hrs followed by light irradiation at 420 nm for 4 mins and measured after 48 hrs by MTT assay relative to control. Format: functional. The conditions noted are these: A549, light or radiation study, 72.07 h, time 4324 min, read-out: Activity.
Data set [13] deals with A549. Put plainly: Antiproliferative activity against human A549 cells assessed as cell viability at 10 uM incubated for 72 hrs by MTT assay relative to control. Type of data set: functional. The conditions noted are these: read-out: Activity. On the technique in general: Tetrazolium assays rely on reduction of a dye to a coloured formazan, in cell work by metabolically active cells.

Another data set has as its system HUVEC. Nature of the data set: Cytotoxicity against HUVEC cells at 50 uM incubated for 72 hrs under dark condition. Type of data set: toxicity, cell-based. Particulars: human.
The target in data set [14] is Protein arginine N-methyltransferase 6 (Homo sapiens) (UniProt Q96LA8). Nature of the data set: Inhibition of PRMT6 in human A549 cells assessed as decrease in H3R2me2a level at 0.1 uM incubated for 24 hrs by Western blot analysis. Type of data set: cell-based. On the technique in general: A western blot detects proteins with antibodies after separation by electrophoresis.
Sequence of Protein arginine N-methyltransferase 6 (Homo sapiens) (Q96LA8 whole entry, looked up): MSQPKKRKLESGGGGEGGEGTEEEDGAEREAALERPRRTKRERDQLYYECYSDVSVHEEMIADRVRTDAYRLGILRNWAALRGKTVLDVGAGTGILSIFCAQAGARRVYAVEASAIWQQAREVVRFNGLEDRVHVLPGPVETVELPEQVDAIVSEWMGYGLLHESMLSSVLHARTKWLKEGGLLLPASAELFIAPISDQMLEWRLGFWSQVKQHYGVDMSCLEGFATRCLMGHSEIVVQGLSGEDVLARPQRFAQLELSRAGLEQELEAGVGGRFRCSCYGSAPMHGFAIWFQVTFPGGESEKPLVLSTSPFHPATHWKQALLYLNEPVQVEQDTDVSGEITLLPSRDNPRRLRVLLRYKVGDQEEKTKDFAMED

Data set [15] shares this target. Nature of the data set: Inhibition of PRMT6 in human A549 cells assessed as decrease in H4R3me2a level at 0.1 uM incubated for 24 hrs by Western blot analysis. Type of data set: cell-based.

The source made the active and inactive calls. The calls are words filed in the database; no cut-off is given here. A value given as a limit tells only on which side of the number the result lay.

Regarding `CCN(CC)c1ccc2c(COC(=O)NCCN(C)Cc3c[nH]cc3-c3ccc(OC(C)C)cc3)cc(=O)oc2c1`, the Activity in [1] is 380 nm; in data set [2], 470 nm; in the data set on A549 [5] it was “No effect”; in the data set on A549 [6] it was “Active; About 5.4:1 Ratio Between Down-Regulated And Upregulated Genes Observed”; with A549 [7] it was approximately 56%; in the data set on A549 [8] it was “No effect”. Further, the Activity result in the data set with A549 [9] is “No effect”; with A549 [10], “Active; Downregulation Of Gene Sets Observed”; with A549 [11], “Active; Downregulation Of Gene Sets Observed”; with HUVEC it was “Non-toxic”. Further, in data set [3], the Stability entry is reported as “Unstable”. Besides, in data set [4], the remaining at 72 h was more than 75%. Further, the viability at 10 µM turned out to be 79.4% in the data set with A549 [12] and 94.6% in the data set on A549 [13].

For the compound `CC(C)Oc1ccc(-c2c[nH]cc2CN(C)CCN)cc1`, the inhibition result in [14] and in data set [15] was “Active” in each case.
